# Laboratory results published in paper PMC4164625 (PLoS ONE, 2014).
# Experiments:
# [1] = target: T1, recombinant human SIRT1 (Homo sapiens, UniProt Q96EB6); experiment: SIRT1 initial-rate inhibition kinetics against NAD+, global nonlinear fitting (Eq. 1); format: biochemical; parameters: purchased Enzo Life Sciences AK 555
# T1 sequence (Q96EB6 1-747): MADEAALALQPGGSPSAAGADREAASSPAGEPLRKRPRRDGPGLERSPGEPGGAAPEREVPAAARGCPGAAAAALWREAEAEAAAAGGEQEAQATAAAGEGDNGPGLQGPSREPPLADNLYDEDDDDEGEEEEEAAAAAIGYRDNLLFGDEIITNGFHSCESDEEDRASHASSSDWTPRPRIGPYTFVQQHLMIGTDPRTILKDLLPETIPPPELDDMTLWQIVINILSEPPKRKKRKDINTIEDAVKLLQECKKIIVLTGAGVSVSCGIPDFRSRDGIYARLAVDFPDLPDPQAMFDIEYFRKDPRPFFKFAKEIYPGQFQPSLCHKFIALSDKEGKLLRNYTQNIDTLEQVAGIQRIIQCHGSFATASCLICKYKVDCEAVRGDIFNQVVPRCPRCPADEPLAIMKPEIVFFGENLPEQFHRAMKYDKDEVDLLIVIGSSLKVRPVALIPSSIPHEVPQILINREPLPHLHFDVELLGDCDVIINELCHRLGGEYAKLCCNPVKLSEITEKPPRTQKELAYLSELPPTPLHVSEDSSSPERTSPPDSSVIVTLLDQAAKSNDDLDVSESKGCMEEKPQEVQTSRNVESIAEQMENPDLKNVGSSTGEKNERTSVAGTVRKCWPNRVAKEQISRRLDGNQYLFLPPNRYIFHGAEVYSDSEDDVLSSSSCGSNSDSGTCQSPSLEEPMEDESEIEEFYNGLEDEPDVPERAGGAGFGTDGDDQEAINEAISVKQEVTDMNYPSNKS
# Source text: We utilized a novel deacetylation activity assay that generates a fluorescent signal upon deacetylation of a peptide substrate.
# Data are globally nonlinear fitted to base exchange inhibition model (Eq. 1) and shown as a double-reciprocal plot of 1/v versus 1/[NAD^+]. In (C) and (D), the intersection points of the double reciprocal plots are enlarged for SIRT1 and SIRT3, respectively.
# [2] = system: SIRT1; conditions: cited from earlier work
# [3] = system: bacterial Sir2; conditions: cited from earlier work
# [4] = system: mouse Sir2; conditions: cited from earlier work
# [5] = system: SIRT2; conditions: cited from earlier work
# [6] = system: yeast Sir2; conditions: cited from earlier work
# [7] = system: SIRT5; conditions: cited from earlier work
# [8] = target: T2, recombinant human SIRT3 (Homo sapiens, UniProt Q9NTG7); experiment: Fluorometric deacetylation assay, IC50 of NAM and isoNAM for SIRT3; format: biochemical; parameters: purchased Creative BioMart; conditions: 90 minutes incubation, 1 mM NAD^+ at 37°C (Methods b105: 100 µM NAD^+)
# T2 sequence (Q9NTG7 1-399): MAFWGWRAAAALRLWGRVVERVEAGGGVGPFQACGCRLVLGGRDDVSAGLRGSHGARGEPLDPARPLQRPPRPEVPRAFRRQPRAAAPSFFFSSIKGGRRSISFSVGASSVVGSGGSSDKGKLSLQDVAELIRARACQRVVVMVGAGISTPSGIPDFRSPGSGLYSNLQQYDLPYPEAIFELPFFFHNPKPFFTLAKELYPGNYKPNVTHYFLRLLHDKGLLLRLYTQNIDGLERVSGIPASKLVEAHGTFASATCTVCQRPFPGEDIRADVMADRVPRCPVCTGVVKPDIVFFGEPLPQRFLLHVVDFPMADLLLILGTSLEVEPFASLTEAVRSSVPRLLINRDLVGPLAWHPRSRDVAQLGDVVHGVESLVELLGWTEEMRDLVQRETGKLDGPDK
# [9] = target: T2, recombinant human SIRT3; experiment: SIRT3 initial-rate inhibition kinetics against NAD+, global nonlinear fitting (Eq. 1 / Eq. 2)
# [10] = target: T1, recombinant human SIRT1; experiment: Fluorometric deacetylation assay, IC50 of NAM and isoNAM for SIRT1
SMILES,"Vmax, model parameter estimate ([1]; global nonlinear fit of initial rates with NAM (Eq. 1)) [µM/min]","Michaelis constant, model parameter estimate ([1]; global nonlinear fit of initial rates with NAM (Eq. 1), varying NAD^+, saturating peptide, 37°C) [µM]","α ([1]; mixed inhibition model, K3≡αK2 (Eq. 1))",IC50 [2] [µM],IC50 [3] [µM],IC50 [4] [µM],IC50 [5] [µM],IC50 [6] [µM],IC50 [7] [mM],IC50 [8] [mM],"Ki ([9]; K 2(K i), K2 of Eq. 1 for NAM, Ki of Eq. 2 for isoNAM (in brackets), unit inferred, b71 gives isoNAM Ki≈4.6 mM) [mM]","Ki ([9]; Ki, from fitting of Eq. 2, as restated in the Discussion) [mM]",Inhibition mode with respect to NAD^+ ([9]; double reciprocal plot / value of α),"Vmax, model parameter estimate ([9]; global nonlinear fit of initial rates with the named inhibitor (Eq. 1 for NAM, Eq. 2 for isoNAM)) [µM/min]","Michaelis constant, model parameter estimate ([9]; global nonlinear fit of initial rates with the named inhibitor (Eq. 1 for NAM, Eq. 2 for isoNAM), varying NAD^+, saturating peptide, 37°C) [µM]",IC50 [10] [mM]
"NC(=O)c1cccnc1 [NAM, nicotinamide]",0.863,168.2,0.848,50,26,160,[…],120,1.6,,,,,,,
"NC(=O)c1ccncc1 [isoNAM, isonicotinamide]",,,,,,,,,,13.8 ± 0.5,4.62,~4.6,competitive inhibitor,0.167,1402,12.2 ± 0.3
